According to patent publication US8252774B2, “5-azaindole bisphosphonates” (Isis Innovation Ltd., priority 2008, dated 2012):

How the values were obtained:
[1] = HAP affinity: chromatographic profiling on hydroxyapatite column (FPLC); format: physicochemical; conditions: phosphate buffer gradient 1 mM up to 1000 mM, pH 6.8, determined in triplicate, longer retention = higher mineral affinity
[2] = molecular target: T1, human farnesyl pyrophosphate synthase (FPPS) (Homo sapiens, UniProt P14324); test: FPPS inhibition in vitro; format: biochemical; conditions: recombinant human FPPS
T1 construct: made in house
T1 sequence (P14324 67-419 limits assumed): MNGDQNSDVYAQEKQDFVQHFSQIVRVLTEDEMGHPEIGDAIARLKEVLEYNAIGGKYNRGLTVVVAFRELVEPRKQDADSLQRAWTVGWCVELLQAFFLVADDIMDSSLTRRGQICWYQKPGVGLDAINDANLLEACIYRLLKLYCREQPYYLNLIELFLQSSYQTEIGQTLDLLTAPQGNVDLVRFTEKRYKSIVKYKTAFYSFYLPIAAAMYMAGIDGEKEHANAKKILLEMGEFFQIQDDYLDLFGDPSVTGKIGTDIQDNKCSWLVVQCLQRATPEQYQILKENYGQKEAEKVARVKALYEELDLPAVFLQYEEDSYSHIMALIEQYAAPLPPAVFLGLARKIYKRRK

Row | Retention time [1] [min] | IC50 ([2]; after pre-incubation) [nM] | Ki ([2]; final inhibition constant) [nM] | Compound
1 | 6.3 | 6.6 | 0.6 | O=P(O)(O)C(Cc1c[nH]c2ccncc12)P(=O)(O)O [5-azaindol-3-yl-ethyl-bisphosphonic acid]
2 | 12.53 |  |  | O=P(O)(O)C(O)(Cn1ccnc1)P(=O)(O)O [Zoledronate]
3 | 9.97 |  |  | O=P(O)(O)C(O)(Cc1cccnc1)P(=O)(O)O [Risedronate]
4 | 10.33 |  |  | O=P(O)(O)C(O)(Cc1cnc2ccccn12)P(=O)(O)O [Minodronate]
